1 molecule from patent US10000765B2, “Gene encoding cytochrome P450, and use thereof” (NATIONAL INSTITUTE OF AGROBIOLOGICAL SCIENCES, priority 2011, dated 2018) can be followed below.

Series [1] has as its system Rice (Nipponbare) calluses transformed with pCAMBIA1302-sGFP. Nature of the series: Redifferentiation and rooting test, control rice callus transformed with pCAMBIA1302-sGFP. The series is classed as cell-based, Oryza sativa. The protocol:
After selective culturing, the callus was transplanted onto a rice redifferentiation medium RE-III (containing 50 ppm hygromycin or 0.25 μM bispyribac sodium), cultured at 27 degree C. under 16L/8D conditions, and led to redifferentiate. The callus was plated after 2 weeks. At additional about 2 to 3 weeks, a redifferentiated, transformed rice (T0) was obtained. Once a differentiated shoot and/or root had appeared, the rice was transplanted onto a hormone-free (HF) medium (containing 50 ppm hygromycin or 0.25 μM bispyribac sodium).
According to Example 5, an HptII::35Spro::Kasalath CYP72A31::Tnos vector plasmid (pCAMBIA1390-KasCYP72A31, a kasCYP72A31 overexpression construct) or, as controls, an HptII::35Spro::sGFP::Tnos vector plasmid (pCAMBIA1302-sGFP, an sGFP overexpression construct) or an OsALS (W548L/S627I)::OsAct-1pro::sGFP::Tnos vector plasmid (pSTARA-sGFP, a BS-resistant construct) was introduced into a rice variety (a cultivar: Nipponbare) by using an Agrobacterium method. According to a schedule designated in FIG. 12A), transformed calluses were selected with 50 ppm hygromycin. […] Of all the calluses, 43 calluses were transplanted onto a redifferentiation medium containing 0.25 μM BS.
Rice (Nipponbare) calluses transformed with a pCAMBIA1390-KasCYP72A31 construct in Example 8 were obtained by 50 ppm hygromycin selection. […]

The subject of series [2] is Nipponbare and Kasalath calluses with CYP72A31 overexpression construct. Nature of the series: Callus growth test on BS-containing medium, Kasalath CYP72A31 overexpression construct. The series is classed as cell-based, Oryza sativa. The following applies: medium containing 0.25, 0.5, or 0.75 μM BS. An excerpt:
According to Example 5, an HptII::35Spro::Kasalath CYP72A31::Tnos vector plasmid (pCAMBIA1390-KasCYP72A31, a kasCYP72A31 overexpression construct) or, as a control, an HptII::35Spro::sGFP::Tnos vector plasmid (pCAMBIA1390-sGFP, an sGFP overexpression construct) was introduced into a rice variety (cultivars: Nipponbare and Kasalath) by using an Agrobacterium method. Transformed calluses selected with 50 ppm hygromycin were isolated, and transplanted onto a bispyribac-sodium (BS)-containing medium to examine callus growth.

Series [3] deals with Arabidopsis thaliana (K31-4-2) transformed with a Kasalath-derived CYP72A31 gene. The series can be described thus: Drug sensitivity test on drug-containing MS medium, Arabidopsis thaliana transformed with Kasalath-derived CYP72A31 gene. The series is classed as in vivo. Particulars: for Ratio of sensitivity: K31-4-2 / NT. The protocol:
A bag of mixed salts for Murashige-Skoog (MS) medium (manufactured by Wako Pure Chemical Industries, Ltd.) 20 g of sucrose, 3 mg of thiamin hydrochloride, 5 mg of nicotinic acid, and 0.5 mg of pyridoxine hydrochloride were dissolved in distilled water, and filled up to 1 L with distilled water. After pH adjustment to 5.8 to 6.3 with 1 M KOH, 3 g of Gelrite was added to the solution, and dissolved using a microwave. After that, the mixture was autoclaved to prepare a sterile MS medium. A test drug was added to this sterile MS medium so as to make a final concentration of 1.3, 4.1, 12, 37, 110, or 330 nM. Arabidopsis thaliana from a sterilized seed was seeded in the drug-containing MS medium, and cultivated at 22° C. for 12 to 14 days in a continuous light period.
Note that the drugs used in this Example were bispyribac-sodium, pyrithiobac-sodium, pyriminobac, bensulfuron-methyl, penoxsulam, pyrazosulfuron-ethyl, amidosulfuron, imazosulfuron, nicosulfuron, and propyrisulfuron.

The test system of series [4] is CYP72A31-overexpressing rice (K31-4-6-2). Nature of the series: Drug sensitivity test on gellan gum medium, CYP72A31-overexpressing rice. The series is classed as in vivo, Oryza sativa. The following applies: for CK ratio (%): plant height compared with drug-free medium. As to the method: Next, 1.6 g of Hoagland's mix (Sigma-Aldrich Corporation) and 3 g of Gelrite (Wako Pure Chemical Industries, Ltd.) were suspended in 1 L of distilled water. Then, the mixture was dissolved and heated in a microwave. After that, the mixture was cooled to 50 to 60 degree C., and BS was added at a final concentration of 1 μM. This mixture was dispensed into 30-mL tubular bottles at 15 mL to prepare a gellan gum medium. Next, CSSL rice paddies were soaked in 0.5% sodium hypochlorite for about 20 minutes, and were then washed well with water. These paddies were soaked in distilled water, and kept at 27 degree C. for 3 to 5 days for germination. Germinating seeds were softly planted in sprout-side up on the gellan gum medium. These samples, together with a beaker filled with distilled water, were placed in a transparent case, which was then covered with a clear-plastic wrap. These samples were grown at 27 degree C. under fluorescent light illumination (14 hours of a light period and 10 hours of a dark period) for 7 to 9 days.
According to the method of Example 1, a gellan gum medium containing a test drug at a concentration of 0.01, 0.1, 1, or 10 μM was prepared. Rice seeds were sterilized, germinated, seeded in the medium, and cultivated.

On to `COc1cc(OC)nc(Oc2cccc(Oc3nc(OC)cc(OC)n3)c2C(=O)O)n1` [BS, bispyribac sodium], for which, in series [1] (hormone-free medium containing 1 μM BS), the “Rooting and survival of plant bodies” value is listed as “killed the plant bodies”. Besides, the Redifferentiation entry in series [1] (redifferentiation medium containing 0.25 μM BS) is “found not to include those redifferentiated”. Also, in series [2], the Callus growth entry is “demonstrated to grow”. Moreover, in series [3] (K31-4-2, Tables 2 and 3, FIGS. 20 to 24), the “Resistance of transformed Arabidopsis thaliana to the drug” value is recorded as “exhibited resistance”. Besides, the “Rate of emerging of true leaf (%)” value in series [3] (K31-4-2, drug 1.3 nM, day 12 after seeding) is 89%; in series [3] (K31-4-2, drug 1.3 nM, day 14 after seeding) it was 100%; in series [3] (K31-4-2, drug 4.1 nM, day 12 after seeding), 100%; in series [3] (K31-4-2, drug 4.1 nM, day 14 after seeding), 100%; in series [3] (K31-4-2, drug 12 nM, day 12 after seeding), 89%; in series [3] (K31-4-2, drug 12 nM, day 14 after seeding) it was 100%. In addition, the “Rate of emerging of true leaf (%)” value in series [3] (K31-4-2, drug 37 nM, day 12 after seeding) was found to be 100%; in series [3] (K31-4-2, drug 37 nM, day 14 after seeding), 100%; in series [3] (K31-4-2, drug 110 nM, day 12 after seeding), 100%; in series [3] (K31-4-2, drug 110 nM, day 14 after seeding), 100%; in series [3] (K31-4-2, drug 330 nM, day 12 after seeding) it was 78%; in series [3] (K31-4-2, drug 330 nM, day 14 after seeding), 80%. Moreover, the Ratio of sensitivity in series [3] (maximum drug concentration for 40% or more emerging of true leaves, day 12) is more than 28; in series [3] (maximum drug concentration for 80% or more emerging of true leaves, day 14), more than 80; in series [4] (maximum drug concentration for CK ratio of 40% or more, K31-4-6-2 / wild-type rice) it was more than 100. Also, the “Resistance of transformed rice to the drug” value in series [4] (Table 4 and FIG. 25) is “exhibited resistance”. The “CK ratio (%)” value in series [4] (K31-4-6-2, drug 0.01 μM) came to 106%; in series [4] (K31-4-6-2, drug 0.1 μM), 97%; in series [4] (K31-4-6-2, drug 1 μM), 103%; in series [4] (K31-4-6-2, drug 10 μM), 74%.
